Experimental data: patent US9492554B2, “Methods and compositions related to viral inhibition” (Clemson University Research Foundation (CURF), priority 2009, dated 2016)

Assays:
HIV-1 TAR RNA = HIV-1 TAR RNA competition FRET binding assay (Tat peptide probe); conditions: 100 nM TAR RNA, 100 nM Tat peptide, 25° C., 60 min
Procedure: Before used, HIV-1 TAR RNA (5′-GGC AGA UCUGAG CCU GGG AGC UCU CUG CC-3′, Thermo Scientific) in 10 μM batch in sterile water was heated to 95° C. for 4.5 min, and then cooled rapidly in ice bath for 5 min. This snap-cooling causes the RNA to adopt the kinetically favored hairpin rather than thermodynamically favored duplexes.
The relative affinity of each polyamine for HIV-1 TAR RNA was determined using Fluorescence Resonance Energy Transfer (FRET)-based competitive binding assay with a fluorescein-labeled HIV-1 Tat peptide as described in the literature. The fluorescence experiments were performed with a Spectra Max Fluorimeter (Molecular Devices) at 25° C., with excitation and emission wavelengths of 495 and 570 nm, respectively. All samples were prepared in 96 well plates in 1×TK buffer (50 mM Tris, 20 mM KCl, pH=7.4) with 0.1% Trixton-100 (Sigma).
To a solution of 100 nM HIV-1 TAR RNA and 100 nM fluorescein-labeled HIV-1 Tat peptide, appropriate concentrations (0 nM to 100 μM) of the antagonists were added at 25° C.; total volume of the incubation solution was 80 μL. After 60 min, fluorescence changes of the sample solution were determined by the Spectra Max Fluorimeter Detector.

HIV-1 RRE RNA = HIV-1 RRE RNA competition binding assay (fluorescence polarization, Rev peptide probe); conditions: 100 nM RRE RNA, 10 nM Rev peptide, 25° C., 1 hour; Table 16
Procedure: Before used, HIV-1 RRE RNA (5′-GGUCUGGGCGCAGCGCAAGCUGACGGUACAGGCC-3′, Thermo Scientific) in 10 μM batch in sterile water was heated to 95° C. for 3 min, and then cooled to ambient temperature over 1 hour.
The relative affinity of each compound for HIV-1 RRE RNA was determined using fluorescence polarization-based competitive binding assay with a fluorescein-labeled HIV-1 Rev peptide. The anisotropy experiments were performed with a Spectra Max Fluorimeter (Molecular Devices) at 25° C., with excitation and emission wavelengths of 485 and 525 nm, respectively. All samples were prepared in 96 well plates in binding buffer (30 mM Hepes, 100 mM KCl, 40 mM NaCl, 10 mM NH4OAc, 10 mM Guanidinium Hydrochloride, 2 mM MgCl2, 0.5 mM EDTA, pH 7.4) with 0.01% triton-X100 (Sigma). The binding data reported for each conjugate are the averages of 3˜5 individual measurements.
A solution of 100 nM RRE RNA and 10 nM fluorescein-labeled HIV-1 Rev peptide was incubated at 25° C. After 10 min, appropriate concentrations (0 nM to 500 μM) of the antagonists were added; total volume of the incubation solution was […]. After 1 hour, the amount of the dissociated fluorescent probe was determined by the Spectra Max fluorescence plate reader. The experimental dose-response data for a given antagonist were fit to a sigmoidal dose-response nonlinear regression model on GraphPad Prism 4.0 to afford the IC50 values for each conjugates (Table 16).

TAR RNA = experiment: UV melting of TAR RNA in presence of ligands (Tm, ΔTm); format: binding, HIV-1; conditions: for ΔTm (° C.): TAR RNA with ligand vs control, Table 10; for Tm (° C.): TAR RNA with ligand, control without ligand 69.3
Procedure: The reactions were done in the presence of 10 mM sodium cacodylate, 0.5 mM EDTA, 0.1 mM MgCl2 pH 7.0. The heating rate was 0.3° C./min.
UV melting studies of TAR were performed in the presence and absence of various ligands (FIG. 13).

HIVNL4-3 in MT-2 cells [1] = experiment: Release of reverse transcriptase into the culture supernatant; format: cell-based, HIV; conditions: for Release of reverse transcriptase into the culture supernatant, Day 2: mean of triplicate infections (SD), microM: DPA119 24, DPA52 25, DPA53 9, DPA54 17, DPA55 4, DPA56 8, DPA121 25, virus control 46,029; for Release of reverse transcriptase into the culture supernatant, Day 4 / Release of reverse transcriptase into the culture supernatant, Day 6: mean of triplicate infections; for Release of reverse transcriptase into the culture supernatant, Day 4: virus control 928,112; for Release of reverse transcriptase into the culture supernatant, Day 6: virus control 1,078,741
Description: The disclosed conjugates also reduce the amount of reverse transcriptase (RT) released into the cell culture supernatant upon in vitro cell culture experiments (Table 14 below). […] It is possible that even though the cells are positive for HIV, they are making much fewer unspliced transcripts, and thus the virion release into the media remains suppressed. […] Anti-HIV activities can be routinely checked by measuring the percentage of cells positive for HIV antigens using immunofluorescence assay (IFA) and for the release of pelletable reverse transcriptase (RT) into the supernatant. For these assays, 500,000 MT-2 cells in 1 ml of media were added to the wells of a 24 well tissue culture plate. Next, 0.5 ml of 4× concentrated compound was added to triplicate wells of the plate. The cells and compounds were incubated for 1 hr at 37 C. Finally, 0.5 ml of HIVNL4-3, produced in H9 cells (a CD4+ lymphoblastoid cell line), 100,000 cpm of RT activity per well, was added to each well. Virus control wells contained no compounds. This inoculum is at a multiplicity of infection less than 1. […] Next, cells were resuspended in the media and 0.5 mls of the total remaining volume was removed for IFA. Cells were combined from their triplicate infections, pelleted, and the enriched cells were air-dried onto glass slides. The dried cells were fixed in acetonemethanol (50:50). After fixing, cells were stained with HIV immunoglobulin, washed in PBS, and counter-stained with FITC-conjugated goat and human IgG. Slides were washed in PBS and the percentage of HIV-positive cells was determined by epifluorescence (Robinson et al. […] The supernatants from each well were precipitated at 4 C overnight in a solution including 30% polyethylene glycol. After precipitation, precipitate was lysed in a solution containing Triton X100, Tris buffer, and DTT. RT activity of each aliquot was determined as incorporation of 3H-dTTP into a poly rA-oligo dT template. After a one hour assay at 37 C, the incorporated dTTP was precipitated onto a ZetaProbe (BioRad) membrane. Slots were excised and placed into liquid scintillation cocktail. After overnight incubation, counts per minute for each sample was determined on a beta counter. Results were calculated as cpm/ml of original culture supernatant (Robinson et al.

HIV = experiment: Protection from HIV cytopathic effects; format: cell-based; conditions: at 24 microM
HIVNL4-3 in MT-2 cells [2] = experiment: HIV antigen synthesis in treated cells, immunofluorescence assay (IFA); format: cell-based; conditions: for percentage of cells positive for HIV antigens, Day 2: MT-2 cells, microM: DPA119 24, DPA52 25, DPA53 9, DPA54 17, DPA55 4, DPA56 8, DPA121 25, virus control 15%; for percentage of cells positive for HIV antigens, Day 4 / percentage of cells positive for HIV antigens, Day 6: same concentrations, virus control 100%
Procedure: Anti-HIV activities can be routinely checked by measuring the percentage of cells positive for HIV antigens using immunofluorescence assay (IFA) and for the release of pelletable reverse transcriptase (RT) into the supernatant. For these assays, 500,000 MT-2 cells in 1 ml of media were added to the wells of a 24 well tissue culture plate. Next, 0.5 ml of 4× concentrated compound was added to triplicate wells of the plate. The cells and compounds were incubated for 1 hr at 37 C. Finally, 0.5 ml of HIVNL4-3, produced in H9 cells (a CD4+ lymphoblastoid cell line), 100,000 cpm of RT activity per well, was added to each well. Virus control wells contained no compounds. This inoculum is at a multiplicity of infection less than 1. On days 2, 4, and 6, 0.75 mls of supernatants were removed and placed into individual microfuge tubes for RT assay. Next, cells were resuspended in the media and 0.5 mls of the total remaining volume was removed for IFA. Cells were combined from their triplicate infections, pelleted, and the enriched cells were air-dried onto glass slides. The dried cells were fixed in acetonemethanol (50:50). After fixing, cells were stained with HIV immunoglobulin, washed in PBS, and counter-stained with FITC-conjugated goat and human IgG. Slides were washed in PBS and the percentage of HIV-positive cells was determined by epifluorescence (Robinson et al. J Acquire Immune Defic Syndr 2:33-42, 1989).

Row | SMILES | 5% Toxicity microM (cells) [µM] | IC50 (HIV-1 TAR RNA; Table 17) [nM] | IC50 (HIV-1 RRE RNA) [nM] | ΔTm (° C.) (TAR RNA) [°C] | Tm (° C.) (TAR RNA) [°C] | IC50 (HIV-1 TAR RNA; Table 18) [nM] | Release of reverse transcriptase into the culture supernatant, Day 2 (HIVNL4-3 in MT-2 cells [1]) | Release of reverse transcriptase into the culture supernatant, Day 4 (HIVNL4-3 in MT-2 cells [1]) | Release of reverse transcriptase into the culture supernatant, Day 6 (HIVNL4-3 in MT-2 cells [1]) | protection from HIV cytopathic effects (HIV) [%] | percentage of cells positive for HIV antigens, Day 2 (HIVNL4-3 in MT-2 cells [2]) | percentage of cells positive for HIV antigens, Day 4 (HIVNL4-3 in MT-2 cells [2]) [%] | percentage of cells positive for HIV antigens, Day 6 (HIVNL4-3 in MT-2 cells [2]) [%]
1 | CN1CCN(c2ccc3nc(-c4ccc(OCCn5cc(CCCc6cn(C[C@H]7OC(OC8C(O)[C@H](N)CC(N)[C@H]8O[C@H]8OC(CN)[C@@H](O)C(O)C8N)C(O)C7O[C@H]7OC(CN)[C@@H](O)C(O)C7N)nn6)nn5)cc4)[nH]c3c2)CC1 (some centres unmarked) [DPA120] | 94 | 1700 ± 300 | 15300 ± 6900 | 3.9 | 73.2 |  |  |  |  |  |  |  | 
2 | CN1CCN(c2ccc3nc(-c4ccc(OCc5cn(C[C@H]6OC(OC7C(O)[C@H](N)CC(N)[C@H]7O[C@H]7OC(CN)[C@@H](O)C(O)C7N)C(O)C6O[C@H]6OC(CN)[C@@H](O)C(O)C6N)nn5)cc4)[nH]c3c2)CC1 (some centres unmarked) [DPA123] |  |  | 768 ± 309 |  |  | 155 ± 49 |  |  |  |  |  |  | 
3 | CN1CCN(c2ccc3nc(-c4ccc(OCCn5cc(COCc6cn(C[C@H]7OC(OC8C(O)[C@H](N)CC(N)[C@H]8O[C@H]8OC(CN)[C@@H](O)C(O)C8N)C(O)C7O[C@H]7OC(CN)[C@@H](O)C(O)C7N)nn6)nn5)cc4)[nH]c3c2)CC1 (some centres unmarked) [DPA119] | 94 | 464 ± 146 |  | 4.2 | 73.5 |  | 16,576 (3,815) cpm/ml | 241,955 cpm/ml | 399,421 cpm/ml | 16 | 5-7% | 90 | 100
4 | CN1CCN(c2ccc3nc(-c4ccc(OCCn5cc(CCCCc6cn(C[C@H]7OC(OC8C(O)[C@H](N)CC(N)[C@H]8O[C@H]8OC(CN)[C@@H](O)C(O)C8N)C(O)C7O[C@H]7OC(CN)[C@@H](O)C(O)C7N)nn6)nn5)cc4)[nH]c3c2)CC1 (some centres unmarked) [DPA121] | >186 | 686 ± 110 | 30500 ± 11100 |  |  |  | 26,499 (5,566) cpm/ml | 579,856 cpm/ml | 880,573 cpm/ml |  | 15% | 100 | 100
5 | CN1CCN(c2ccc3nc(-c4ccc(OCCn5cc(CCCCCCc6cn(C[C@H]7OC(OC8C(O)[C@H](N)CC(N)[C@H]8O[C@H]8OC(CN)[C@@H](O)C(O)C8N)C(O)C7O[C@H]7OC(CN)[C@@H](O)C(O)C7N)nn6)nn5)cc4)[nH]c3c2)CC1 (some centres unmarked) [DPA122] | 46 | 825 ± 145 | 5.4 ± 2.4 | 5.4 | 74.8 |  |  |  |  |  |  |  | 
6 | CN1CCN(c2ccc3nc(-c4ccc(OCc5cn(CCCCCCn6cc(CCCCc7cn(C[C@H]8OC(OC9C(O)[C@H](N)CC(N)[C@H]9O[C@H]9OC(CN)[C@@H](O)C(O)C9N)C(O)C8OC8OC(CN)C(O)C(O)C8N)nn7)nn6)nn5)cc4)[nH]c3c2)CC1 (some centres unmarked) [DPA114] | 11 | 11600 ± 2300 |  | 3.8 | 73.1 |  |  |  |  |  |  |  | 
7 | CN1CCN(c2ccc3nc(-c4ccc(OCc5cn(CCCCCCCCCCn6cc(CCCCc7cn(C[C@H]8OC(OC9C(O)[C@H](N)CC(N)[C@H]9O[C@H]9OC(CN)[C@@H](O)C(O)C9N)C(O)C8O[C@H]8OC(CN)[C@@H](O)C(O)C8N)nn7)nn6)nn5)cc4)[nH]c3c2)CC1 (some centres unmarked) [DPA117] | 41 | 1300 ± 200 | 15500 ± 6300 | 6.3 | 75.6 |  |  |  |  |  |  |  | 
8 | CN1CCN(c2ccc3nc(-c4ccc(OCCn5cc(-c6ccc(-c7cn(C[C@H]8OC(OC9C(O)[C@H](N)CC(N)[C@H]9O[C@H]9OC(CN)[C@@H](O)C(O)C9N)C(O)C8O[C@H]8OC(CN)[C@@H](O)C(O)C8N)nn7)cc6)nn5)cc4)[nH]c3c2)CC1 (some centres unmarked) [DPA118] | >184 | 12100 ± 5400 |  | 4.8 | 74.1 |  |  |  |  |  |  |  | 
9 | CN1CCN(c2ccc3nc(-c4ccc(OCc5cn(CCn6cc(CCCCc7cn(C[C@H]8OC(OC9C(O)[C@H](N)CC(N)[C@H]9O[C@H]9OC(CN)[C@@H](O)C(O)C9N)C(O)C8O[C@H]8OC(CN)[C@@H](O)C(O)C8N)nn7)nn6)nn5)cc4)[nH]c3c2)CC1 (some centres unmarked) [DPA113] | 176 | 61300 ± 18100 |  | 3.1 | 72.4 |  |  |  |  |  |  |  | 
10 | CN1CCN(c2ccc3nc(-c4ccc(OCc5cn(CCCCCCCCn6cc(CCCCc7cn(C[C@H]8OC(OC9C(O)[C@H](N)CC(N)[C@H]9O[C@H]9OC(CN)[C@@H](O)C(O)C9N)C(O)C8O[C@H]8OC(CN)[C@@H](O)C(O)C8N)nn7)nn6)nn5)cc4)[nH]c3c2)CC1 (some centres unmarked) [DPA116] | 83 | 4300 ± 600 |  | 3.8 | 73.1 |  |  |  |  |  |  |  | 
